Data set [1] is described as follows: refractive index (Na D-line) (dimensionless). The conditions noted are these: 293.15 K; 101.33 kPa; Liquid; Standard Abbe refractometry.
The conditions of data set [2]: Liquid, Ebulliometric method (Recirculating still).

Numbers after ± are expanded uncertainties.

As usually defined, the refractive index is the speed of light in vacuum divided by its phase velocity in the sample. The vapor or sublimation pressure is the pressure of vapour in equilibrium with the condensed phase.

On to `CCCC(C)=O` [pentan-2-one], for which the refractive index in data set [1] amounted to 1.3893 ± 0.002. Also, the “vapor or sublimation pressure” value in data set [2] (342.34 K) came out at 32.7 ± 0.34 kPa; in data set [2] (342.95 K), 34.3 ± 0.34 kPa; in data set [2] (352.05 K) it was 47.8 ± 0.27 kPa; in data set [2] (352.65 K), 48.7 ± 0.27 kPa; in data set [2] (361.65 K) it was 66.2 ± 0.31 kPa; in data set [2] (362.55 K), 68.1 ± 0.31 kPa.
With `CCCCO` [butan-1-ol], in data set [1], the refractive index is listed as 1.3989 ± 0.002. The results for the “vapor or sublimation pressure” value in data set [2] (342.95 K), in data set [2] (352.65 K) and in data set [2] (362.55 K) were 13.4 ± 0.24 kPa, 21.4 ± 0.24 kPa and 33.4 ± 0.25 kPa, respectively.
Take `CCCO` [propan-1-ol]: the refractive index in data set [1] was 1.3848 ± 0.002. Moreover, the “vapor or sublimation pressure” value in data set [2] (342.34 K) worked out at 31.5 ± 0.29 kPa; in data set [2] (352.05 K), 49.5 ± 0.31 kPa; in data set [2] (361.65 K) it was 73.2 ± 0.33 kPa.
